Several values for one entry are separate records, joined by “and”; a condition that tells them apart may be missing. Identical values can stand only once.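 Interpolation was linear, between the two tested concentrations surrounding the appropriate level; five concentrations were tested over 48 hours in 96-well plates. GI50 marks 50% less growth. TGI is the concentration that stops growth completely.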
Tested on: MDA-MB-468 breast
Experiment: NCI anticancer screen, dose series, 48 h

Row | SMILES | GI50 | TGI
1 | CCC(=O)OCC1OC(n2cnc3c(=S)nc(N)[nH]c32)C(OC(=O)CC)C1OC(=O)CC (configuration not stated) | 1180 nM | 7450 nM
2 | CCCCc1ccc(NS(=O)(=O)c2cc3c4c(c2)CCN4C(=O)CC3)cc1 | 4500 nM | 94200 nM
3 | O=C(c1ccc(Oc2ccccc2)cc1Cl)c1c[nH]c2ncnc(N[C@@H]3CC[C@@H](CO)OC3)c12 | 1010 nM | 3730 nM
4 | O=C1NC(=O)/C(=C/c2ccc3ncccc3c2)S1 | 9280 nM | > 25000 nM
5 | COC1=C(C)C(=O)N2[C@@H]1[C@H](c1ccccc1)OC21C=CC(=O)C=C1 | 2540 nM | 9240 nM
6 | CCCCN1C=CCN(CCCC)C1 | 18600 nM | 61300 nM
7 | COc1cc(C2CC(c3ccc(SC)cc3)=NN2C(C)=O)cc(OC)c1OC (configuration not stated) | 3710 nM | 26200 nM
8 | COc1ccc([C@H]2[C@H](O)C(=O)N2c2cc(OC)c(OC)c(OC)c2)cc1 | < 10 nM | > 100000 nM
9 | CCOC(=O)c1cc(C(=O)c2cc(OC)cc(OC)c2)n2nc(C)ccc12 | 297 nM | > 100000 nM
10 | COc1ccc(-c2cc(C(=O)N3N=C(c4ccc(N)cc4)CC3c3ccc(Cl)cc3)c3ccccc3n2)cc1 (configuration not stated) | 2950 nM | > 100000 nM
11 | COc1cc(/C=C/[N+](=O)[O-])c([N+](=O)[O-])cc1OC | 1020 nM | 2300 nM
12 | COc1ccc(/C=C/C(=O)c2c(O)c(C)c(O)c3c2OC2=CC(O)=C(C(C)=O)C(=O)[C@]23C)cc1 | 1350 nM | 5010 nM
13 | COc1cc2c(Oc3ccc4[nH]c(C)cc4c3F)ncnc2cc1OCCCN1CCCC1 | 1320 nM | 3060 nM
14 | COc1cc(/C=C/c2cc(/C=C/c3ccc(O)c(OC)c3)n(C(N)=O)n2)ccc1O | 298 nM | 1520 nM
15 | COc1cc(Nc2ncc3c(C)nc(-c4cccc(C(F)(F)F)c4)n3n2)cc(OC)c1OC | 2810 nM | 5980 nM
16 | Cc1ccc(N(CC(=O)Nc2ccc(S(=O)(=O)NC3CCN(C)CC3)cc2)S(=O)(=O)c2ccc(Cl)cc2)cc1 | 1910 nM | 4000 nM
17 | Oc1ccc(OCCOc2ccc(O)cc2)cc1 | 32700 nM | > 100000 nM

Row | SMILES | GI50 | TGI
18 | COc1cc(C=C2c3ccccc3C(=O)c3ccccc32)ccc1OCCCCOc1cc2c(cc1OC)C(=O)N1CCCC1C=N2 (configuration not stated) | 287 nM | 1190 nM
19 | CO[C@@H](C)Cn1c(=O)n(C)c2cnc3ccc(-c4cncc(C(C)(C)O)c4)cc3c21 | 132 nM and 60.1 nM | 661 nM and 472 nM
20 | Fc1ccc(-c2cc3nc(C(Cl)Cl)nc(-c4cccs4)n3n2)cc1 | 219 nM | 666 nM
21 | COc1cc(C(=O)/C=C/c2c(-c3cccs3)nc3sccn23)cc(OC)c1OC | 930 nM | 2890 nM
22 | COc1cc(/C=C/c2cc(/C=C/c3ccc(O)c(OC)c3)n(C(=O)Cc3ccccc3)n2)ccc1O | 1170 nM | 4580 nM
23 | N#Cc1cc(-c2ccnc(Nc3ccc(NC(=O)CCl)cc3)n2)ccc1N1CCCC1 | 3400 nM | 7130 nM
24 | O=C1/C(=C/c2ccccc2[N+](=O)[O-])Oc2ccc(O)cc21 | 1810 nM | 3850 nM
25 | CCN(Cc1cc(F)cc(F)c1)c1ccc(CO)c(Cl)c1 | 18.7 nM | 50.5 nM
26 | CC(c1ccccc1)N1C(=O)CSC1=S (configuration not stated) | 303 nM | > 100000 nM
27 | O=C1C(=O)/C(=C/c2ccccc2)CCCCCC/C1=C/c1ccccc1 | 3620 nM | 17700 nM
28 | CO[C@H]1/C=C/[C@@](C)(O)/C=C/C(=O)O[C@H](C)[C@@H](C)CC/C=C/1C | 8450 nM | 31000 nM
29 | COc1cc(Nc2cc(O)c3c(=O)cc(-c4ccccc4)oc3c2)cc(OC)c1 | 279 nM | 
30 | CN(C)CCCNc1nc2ccccc2c2c(=O)c3cc(F)ccc3sc12 | 675 nM | 2160 nM
31 | Cc1ccc(NC(=O)c2ccc(CN3CC[C@H](N(C)C)C3)c(C(F)(F)F)c2)cc1Nc1nccc(-c2cncnc2)n1 | 5050 nM and 7370 nM | 18400 nM and > 10000 nM
32 | Cn1c([N+](=O)[O-])cnc1/C=C1\Oc2ccc(Br)cc2C1=O | 1590 nM | 4600 nM
33 | Cn1cc(-c2csc(-c3c[nH]c4ccc(F)cc34)n2)c2cccnc21 | 1410 nM | 5240 nM
34 | NCCCNc1nc2ccccc2c2c(=O)c3cccc(F)c3sc12 | 1620 nM | 3240 nM

Source: PubChem BioAssay (NCI)
